# From PMC8906008 (Antiviral Research, 2022)
# Like-named read-outs stand apart in the source and are kept apart here.
# What was measured:
# SARS-CoV-2 nsp5 = conditions: read-out: reported in vitro IC50; ref Ma et al., 2021; cited from earlier work
# [1] = target: SARS-CoV-2 nsp5 (nsp4-5-6 WT) (Severe acute respiratory syndrome coronavirus 2, UniProt P0DTD1); experiment: cell-based; conditions: for inhibition at 10 µM: HEK-293T
# [2] = target: purified SARS-CoV-2 nsp5 protein (Severe acute respiratory syndrome coronavirus 2, UniProt P0DTD1); experiment: biochemical
# SARS-CoV-2 = experiment: microbe, parasite or virus in culture; format: cell-based
# [3] = read-out: Primary screen nsp5-WT RLU (%)
# [4] = read-out: Secondary screen nsp5-WT RLU (%)
Compound,"inhibition at 10 µM [1, 3] [%]","inhibition at 10 µM [1, 4] [%]",other results
"C1=C/COCc2cc(ccc2OCCN2CCCC2)Nc2nccc(n2)-c2cccc(c2)COC/1 [Compound #9, Pacritinib (SB1518)]",28.2,15.3 ± 1.3,–
"CCOC(=O)C1=C(C)NC(C)=C(C(=O)OCC)C1c1ccccc1/C=C/C(=O)OC(C)(C)C [compound 3, Lacidipine]",10.2,8.9 ± 0.7,–
"CC[C@@H]1C(=O)N(C)c2cnc(Nc3ccc(C(=O)N[C@H]4CC[C@H](N5CCN(CC6CC6)CC5)CC4)cc3OC)nc2N1C(C)C [compound 4, Volasertib (BI6727)]",83.9,114 ± 8.9,–
"COc1cc(NC(=O)Nc2cccc(CNC(=O)O[C@H]3CCOC3)c2)ccc1-c1cnco1 [compound 5, Merimepodib]",46.1,39,"IC50 [2]: > 600 µM; inhibition of nsp5 protease activity in vitro [2]: does not efficiently inhibit; SI (selectivity index) (SARS-CoV-2; EC50 to CC50 ratio, A549-ACE2 cells): 1.5; EC50 (SARS-CoV-2; Severe acute respiratory syndrome coronavirus 2, A549-ACE2, read-out: EC50 inhibition of SARS-CoV-2 replication): 21 µM; IC50 [1]: < 50 µM"
"Cc1cnc(Nc2ccc(OCCN3CCCC3)cc2)nc1Nc1cccc(S(=O)(=O)NC(C)(C)C)c1 [compound 6, Fedratinib (SAR302503)]",32.7,57.6 ± 8.6,–
"Cc1sc2c(c1C)C(c1ccc(Cl)cc1)=N[C@@H](CC(=O)Nc1ccc(O)cc1)c1nnc(C)n1-2 [compound 7, OTX015]",31.8,31.5 ± 11,–
"Cc1cnc(Nc2ccc(N3CCN(C)CC3)cc2)nc1Nc1cccc(S(=O)(=O)NC(C)(C)C)c1 [compound 8, TG101209]",–,–,Primary screen nsp5-WT RLU (%) [1]: 30.0%; Secondary screen nsp5-WT RLU (%) [1]: 34.9 ± 4.0%
"O=C(Nc1c[nH]nc1-c1nc2ccc(CN3CCOCC3)cc2[nH]1)NC1CC1 [compound 10, AT9283]",24,14.7 ± 0.8,–
"COCCOc1ccc2c(c1)ncn2-c1ccc2cccc(N3CCC(N)CC3)c2n1 [compound 12, CP 673451]",19.4,13.9 ± 0.9,–
"CNCc1ccc(C)c(NC(=O)c2ccc(Nc3nc(-c4ccccc4)c4ccccc4n3)cc2)c1 [compound 16, BMS-833923 (XL139)]",16.4,16.2 ± 2.1,–
"CC(C)(C)c1cnc(CSc2cnc(NC(=O)C3CCNCC3)s2)o1 [compound 17, SNS-032 (BMS-387032)]",15.7,10.7 ± 1.1,–
"C=CC(=O)Nc1cccc(Nc2nc(Nc3ccc(N4CCN(C(C)=O)CC4)cc3OC)ncc2C(F)(F)F)c1 [compound 20, Rociletinib (CO-1686. AVL-301)]",13.3,9.7 ± 1.9,–
"Cc1nc(Nc2ncc(C(=O)Nc3c(C)cccc3Cl)s2)cc(N2CCN(CCO)CC2)n1 [compound 21, Dasatinib (BMS-354825)]",11.6,10.7 ± 1.7,–
"C=CC(=O)Nc1cc(Nc2nccc(-c3cn(C)c4ccccc34)n2)c(OC)cc1N(C)CCN(C)C [compound 23, Osimertinib (AZD9291)]",–,–,Primary screen nsp5-WT RLU (%) [1]: 10.1%; Secondary screen nsp5-WT RLU (%) [1]: 8.3 ± 2.3%
"O=C(NC(Cc1cc(=O)[nH]c2ccccc12)C(=O)O)c1ccc(Cl)cc1 (stereo not drawn) [compound 43, Rebamipide]",–,-1.5 ± 0.5,–
"CC(C)(C(=O)c1cccnc1)c1cccnc1 [compound 44, Metyrapone]",–,-1.4 ± 0.2,–
UNC2881 [compound 1],–,–,Primary screen nsp5-WT RLU (%) [1]: 29.5%; Secondary screen nsp5-WT RLU (%) [1]: 18.2 ± 0.5%
